Read-outs that look alike come from different tables or passages of the source.
Key:
PANC-1 cells = details: CCK-8; cited from earlier work
recombinant human eEF1A1 = biological target: T1, recombinant human eEF1A1 (Homo sapiens, UniProt P68104); assay: MicroScale Thermophoresis (MST) binding assay; details: for Kd: MST, 50 mM HEPES pH 7.4, 0.05% Tween-20, triplicate, mean ± SD
T1 construct: purchased TMPH-01283
T1 sequence (P68104 1-462): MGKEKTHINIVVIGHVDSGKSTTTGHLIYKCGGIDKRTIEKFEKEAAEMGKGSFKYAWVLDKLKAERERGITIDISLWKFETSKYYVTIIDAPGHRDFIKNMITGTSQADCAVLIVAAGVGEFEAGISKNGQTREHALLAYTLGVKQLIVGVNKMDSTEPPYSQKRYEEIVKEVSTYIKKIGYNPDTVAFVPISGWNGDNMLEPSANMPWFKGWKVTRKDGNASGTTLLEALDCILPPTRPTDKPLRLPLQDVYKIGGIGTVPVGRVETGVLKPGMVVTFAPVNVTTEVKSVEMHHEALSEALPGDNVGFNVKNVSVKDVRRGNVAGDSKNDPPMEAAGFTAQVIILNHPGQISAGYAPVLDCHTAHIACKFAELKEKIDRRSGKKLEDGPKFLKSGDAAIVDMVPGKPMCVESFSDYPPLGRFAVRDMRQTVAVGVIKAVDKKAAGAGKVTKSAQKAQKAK
From the text: To investigate whether the loss of cellular activity in the BE derivatives results from diminished binding to the known intracellular target eEF1A1, we assessed direct target engagement using MST. Recombinant human eEF1A1 protein was titrated against the compounds, which were supplied in HEPES buffer (pH 7.4) and diluted as required. Binding interactions were quantified by monitoring changes in thermophoretic mobility. Detailed materials and protein labeling procedures are provided in the Supporting Information.
Compounds were serially diluted (16-point, 2-fold) in assay buffer (50 mM HEPES, pH 7.4, 0.05% Tween-20) as ligands. Labeled eEF1A1 protein (target) was mixed 1:1 with each dilution and incubated at room temperature for 20 min. Samples were loaded into premium capillaries and analyzed on the Monolith X instrument following the manufacturer’s protocol, with infrared laser excitation at 1480 nm to generate a temperature gradient. Thermophoretic mobility was monitored via fluorescence changes before, during, and after laser activation.
Data were analyzed using NanoTemper Analysis software (version 2.3) to fit binding curves and determine dissociation constants (Kd). Experiments were performed in triplicate, and Kd values are reported as mean ± standard deviation.
The Lucifer Yellow fluorescence (to monitor monolayer integrity) signal is measured in a fluorescence plate reader at 485 nm excitation and 530 nm emission.
The leakage of Lucifer Yellow, in unit of percentage (%), can be calculated using the following equation:
%LY leakage = 100×[LY]acceptor/([LY]donor+[LY]acceptor)
Where [LY]acceptor is the fluorescence intensity in the acceptor well (0.3 mL), and [LY]donor is the fluorescence intensity in the donor well (0.1 mL) and expressed as % leakage. The percentage of Lucifer yellow leakage […]
should be less than 1.0%. […]
monolayers will be compared. […]
those in the replicate transwells (CV<30%), the monolayer's Papp data will be considered valid and […]
Supplementary Table S3. The assessment of caco-2 cell monolayer integrity. […]

BxPC3 cells = assay: CCK-8 antiproliferative assay, BxPC3; assay type: cell-based; details: Homo sapiens, BXPC-3, 72 h, CCK-8, 72 h, mean ± SEM (n = 3); read-out: Cell proliferation IC50 BxPC3
Description: The inhibitory activities against human pancreatic cancer PANC-1 cells of the synthesized compounds were evaluated by CCK-8 assay.
Human pancreatic cancer cell lines PANC-1, PATU8988T and BxPC3 were purchased from the Cancer Institute & Hospital of the Chinese Academy of Medical Sciences (Shanghai, China). All three cell lines were cultured in RPMI-DMEM medium containing 10% fetal bovine serum, cultured at a constant temperature of 37 °C in a humidified incubator with 5% CO2.
Pancreatic cancer cells are seeded into 96-well plates. After a proliferation time of 16 h, different concentrations of compounds are added into the corresponding wells and incubated for 72 h. 10 μL of CCK-8 solution is added into each well and incubated for 1–4 h at 37 °C. Shake the plates and read the OD value of each well at 450 nm on a microplate reader.
1. Characterization of biological activity
Supplementary Figure S1. Cell viability is assessed using the CCK -8 assay following 72 h treatment with the tested compounds in pancreatic cancer cell lines: a) PATU8988T, b) BxPC3.
Supplementary Table S1. The effects of compounds against two pancreatic cancer cell lines were evaluated using […]
Cell proliferation IC 50(µM)a
[a] IC50 va lues of the tested compounds ar e determined in PATU8988T an d BxPC3 cells. […]
Supplementary Figure S2. Convergence of the PMF calculated from WTM -eABF simulation . […]

| SMILES | IC50 (PANC-1 cells) [µM] | Kd (recombinant human eEF1A1; read-out: Kd) [µM] | fold weaker affinity than the parent BE (recombinant human eEF1A1; ratio of MST Kd values) | IC50 (BxPC3 cells) [µM] | Kd (recombinant human eEF1A1) |
| --- | --- | --- | --- | --- | --- |
| CCCCCCCCCCCCCC1OC(=O)CN(C)C(=O)C=CC(CN2CCN(C)CC2)NC(=O)CNC(=O)C(C)(O)C(=O)C1C (stereo not drawn) [BE-NMP] | 0.65 ± 0.19 | – | – | – | – |
| CCCCOc1ccc(-c2ccc(-c3ccc(Cn4cc(CCCCC[C@H]5OC(=O)CN(C)C(=O)/C=C/[C@@H](CN6CCN(C)CC6)NC(=O)CNC(=O)[C@@](C)(O)C(=O)[C@H]5C)nn4)cc3)cc2)cc1 [Compound 29] | – | 7.82 ± 0.63 | approximately 3.4 fold | > 50 | – |
| CC1C(=O)C(C)(O)C(=O)NCC(=O)NC(CN2CCN(C)CC2)C=CC(=O)N(C)CC(=O)OC1CCCCc1cn(CCCCCCCCNC(=N)N)nn1 (stereo not drawn) [Compound 31] | – | – | – | > 100 | no detectable binding |
